One assay deals with Porcine Smooth Muscle Cell. As to the kind of experiment: Effects of Compounds on Cell Proliferation Using 3H Thymidine Incorporation. As to conditions: @ 50 μM, control (100%) = maximally stimulated cells. Format: cell-based. As for the experimental part:
Effects of Compounds on Cell Proliferation Using ^3H Thymidine Incorporation
Human and porcine smooth muscle cells were tested in early passage (generally passage 3-7) at sub-confluent conditions. Cultures were grown in 16 mm (24 well) multi-well culture dishes in medium 199 supplemented with 10% fetal bovine serum and 2% antibiotic/antimycotic. At sub-confluence, the cells were placed in a defined serum free medium (AIM-V; Gibco) for 24-48 h prior to initiating the experimental protocol.
Compounds were added to each well at 50 fold dilution (20 μL/well) and the plates were incubated for 24-36 h at 37° C. in 5% CO2. Compounds were initially dissolved in 50% ethanol and serially diluted into media. Compounds were routinely evaluated at concentrations from 1 to 100 μM. As a control, grade II porcine intestinal mucosal heparin (sodium salt) was routinely evaluated in all cell preparations at concentrations from 0.1 to 100 μg/mL.
At the completion of the test procedure, plates were placed on ice, washed three times with ice cold phosphate buffered saline (PBS) and incubated in ice cold 10% trichloroacetic acid (TCA) got 30 min to remove acid soluble proteins. Solution was transferred to scintillation vials containing 0.4 N HCl (500 μL/vial to neutralize NaOH) and each well was rinsed two times with water (500 μL) for a total volume of 2 mL/vial.
Data was obtained, in triplicate, for both control and experimental samples. Control (100%) data was obtained from maximally stimulated cells, as the result of growth factor or serum stimulation. Experimental data was obtained from cells maximally stimulated with growth factor or serum and treated with compound. Data are expressed as an IC50 or percent inhibition in Table I below.
(In general: Uptake of a labelled nucleoside into DNA is a usual measure of proliferation.)
For the compound `CC(=O)N(C)c1cc(CO[C@@H]2O[C@H](CO)[C@@H](O[C@H]3O[C@@H]4COC(c5ccccc5)O[C@H]4[C@H](O)[C@H]3O)[C@H](O)[C@H]2O)ccc1Cl` (stereo partly drawn) [Example 78, N-{5-[(4′,6′-O-Benzylidene-β-D-maltosyl)-oxymethyl]-2-chloro-phenyl}-N-methyl-acetamide], the “Porcine Smooth Muscle Cell Antiproliferation, percent inhibition” value came to 8% @ 50.

The assay is the same for the next values; noted with them: serum/growth factor stimulated cells, 24-36 h incubation, read-out: Porcine Smooth Muscle Cell Antiproliferation IC50.
Turning to `CC(=O)Nc1cc(COC2OC(COC(=O)c3ccc(Cl)c([N+](=O)[O-])c3)C(OC3OC4COC(c5ccccc5)OC4C(O)C3OC(C)=O)C(OC(C)=O)C2OC(C)=O)ccc1Cl` [Example 39, N-{5-[(2,2′,3,-Tri-O-Acetyl-6-O-(4-chloro-3-nitrobenzoyl)-4′,6′-O-(benzylidene)-β-D-maltosyl)-oxymethyl]-2-chloro-phenyl)-acetamide], the IC50 was found to be 2530 nM.
`CC(=O)Nc1cc(COC2OC(COC(=O)c3ccc(C#N)cc3)C(OC3OC4COC(c5ccccc5)OC4C(O)C3O)C(O)C2O)ccc1Cl` [Example 40, (R)-N-[2-Chloro-5-[[[6-O-(4-cyanobenzoyl)-4-O-[4,6O-(phenylmethylene)-α-D-glucopyranosyl]-β-D-glucopyranosyl]oxy]methyl]phenyl]acetamide]: the IC50 came to 92 nM.
The same measure, in the same setting: the same measure for `CC(=O)Nc1cc(COC2OC(COC(=O)c3ccccc3)C(OC3OC4COC(C)OC4C(OC(C)=O)C3OC(C)=O)C(OC(C)=O)C2OC(C)=O)ccc1Cl` [Example 3, (R)-N-[2-Chloro-5-[[[2,3-di-O-acetyl-6-O-benzoyl-4-O-(2,3-di-O-acetyl-4,6-O-ethylidene-α-D-glucopyranosyl)-β-D-glucopyranosyl]oxy]methyl]phenyl]acetamide]: 2920 nM; for `CC(=O)Nc1cc(COC2OC(COC(=O)c3ccc(I)cc3)C(OC3OC4COC(c5ccccc5)OC4C(O)C3O)C(O)C2O)ccc1Cl` [Example 45, N-{5-[(4′,6′-O-Benzylidene-6-(4-iodo-benzoyl)-oxy-β-D-maltosyl)-oxy-methyl]-2-chloro-phenyl}-acetamide]: 6440 nM; for `CC(=O)Nc1cc(COC2OC(CO)C(OC3OC4COC(Cc5ccccc5)OC4C(O)C3O)C(O)C2O)ccc1Cl` [Example 16, N-{5-[(4′,6′-O-((1R)-2-Phenyl-ethylidene)-β-D-maltosyloxy)-methyl]-2-chloro-phenyl}-acetamide]: 16300 nM.
Same read-out and setting: for `O=[N+]([O-])c1cc(CSC2OC(CO)C(OC3OC4COC(c5ccccc5)OC4C(O)C3O)C(O)C2O)ccc1Cl` (centres unmarked) [Example 86, 6-[-6-(4-Chloro-3-nitro-benzylsulfanyl)-4,5-dihydroxy-2-hydroxymethyl-tetrahydro-pyran-3-yloxy]-2-phenyl-hexahydro-pyrano[3,2-d][1.3]dioxine-7.8-diol] the value was 16300 nM; for `CC(NC(=O)OCC1c2ccccc2-c2ccccc21)C(=O)Nc1cc(COC2OC(COC(=O)c3ccccc3)C(OC3OC4COC(c5ccccc5)OC4C(O)C3O)C(O)C2O)ccc1Cl` [Example 76, N-(9H-Fluoren-9ylmethoxycarbonyl)-N′-{5-[(6-O-benzoyl-4′,6′-O-benzylidene-β-D-maltosyl)-oxy-methyl]-2-chloro-phenyl}-L-alaninamide], 156 nM; for `Nc1cc(COC2OC(COC(=O)c3ccccc3)C(OC3OC4COC(c5ccccc5)OC4C(O)C3O)C(O)C2O)ccc1Cl` [Example 67, 5-(6-O-Benzoyl-4′,6′-O-benzylidene-β-D-maltosyl)-oxy-methyl-2-chloro-phenylamine], 1290 nM.
Still for that read-out and setting: for `CC(=O)Nc1cc(COC2OC(COS(=O)(=O)c3ccc(C)cc3)C(OC3OC4COC(c5ccccc5)OC4C(OC(C)=O)C3OC(C)=O)C(OC(C)=O)C2OC(C)=O)ccc1Cl` [Example 7, N-(5-{[2,32′,3′-Tetra-O-acetyl-4′,6′-O-benzylidene-6-O-(4-toluenesulfonyl)-β-D-maltosyl]-oxy-methyl}-2-chloro-phenyl)-acetamide] the value was 88 nM; for `CC(=O)Nc1cc(COC2OC(CO)C(OC3OC4COC(c5ccc(Cl)cc5)OC4C(O)C3O)C(O)C2O)ccc1Cl` [Example 12, N-{2-Chloro-5-[(4′,6′-O-(4-chloro)-benzylidene-β-D-maltosyl)-oxy-methyl]-phenyl}-acetamide], 29400 nM; for `O=[N+]([O-])c1cc(COC2OC(CO)C(OC3OC4COC(c5ccccc5)OC4C(O)C3O)C(O)C2O)ccc1Cl` [Example 29, 4-Chloro-3-nitro-benzyl-4′,6′-O-benyzlidene-β-D-maltoside], 44100 nM.
Regarding `CC(=O)Nc1cc(COC2OC(COC(=O)c3ccc(C(=O)c4ccccc4)cc3)C(OC3OC4COC(c5ccccc5)OC4C(O)C3O)C(O)C2O)ccc1Cl` [Example 56, (R)-N-[5-[[[6-O-(4-Benzoylbenzoyl)-4-O-[4,6-O-(phenylmethylene)-α-D-glucopyranosyl]-β-D-glucopyranosyl]oxy]methyl]-2-chlorophenyl]acetamide], the IC50 stood at 530 nM.
On the same count and under the same terms, the same measure for `CC(=O)Nc1cc(COC2OC(COCc3ccccc3)C(OC3OC4COC(c5ccccc5)OC4C(O)C3O)C(O)C2O)ccc1Cl` [Example 8, N-{5-[(6-O-Benzyl-4′,6′-O-benzylidene-β-D-maltosyl)-oxy-methyl]-2-chloro-phenyl}-acetamide]: 1 nM; for `O=C(Nc1cc(COC2OC(CO)C(OC3OC4COC(c5ccccc5)OC4C(O)C3O)C(O)C2O)ccc1Cl)c1cccnc1` [Example 61, (R)-N-[2-Chloro-5-[[[4-O-[4′,6′-O-(phenylmethylene)-α-D-glucopyranosyl]-β-D-glucopyranosyl]oxy]methyl]phenyl]-3-pyridinecarboxamide]: 13700 nM.
Still for that read-out and setting: the same measure for `CC(=O)Nc1cc(COC2OC(COC(=O)c3cccnc3)C(OC3OC4COC(c5ccccc5)OC4C(O)C3O)C(O)C2O)ccc1Cl` (centres unmarked) [Example 54, Nicotinic acid 6-(3-acetylamino-4-chloro-benzyloxy)-3-(7,8-dihydroxy-2-phenyl-hexahydro-pyrano[32-d][1,3]dioxin-6-yloxy)-4,5-dihydroxy-tetrahydro-pyran-2-ylmethyl ester]: 211 nM.
On the same count and under the same terms, for `CC(=O)Nc1cc(COC2OC(CO)C(OC3OC4COC(c5ccncc5)OC4C(O)C3O)C(O)C2O)ccc1Cl` [Example 22, N-(2-Chloro-5-{[4′,6′-O-(4-pyridinemethylidene)-β-D-maltosyl]-oxy-methyl}-phenyl)-acetamide] the value was 5530 nM.
With `C=CCCC(=O)Nc1cc(CO[C@@H]2O[C@H](COC(=O)c3ccccc3)[C@@H](O[C@H]3O[C@@H]4COC(c5ccccc5)O[C@H]4[C@H](O)[C@H]3O)[C@H](O)[C@H]2O)ccc1Cl` (stereo partly drawn) [Example 66, N-{2-Chloro-5-[(6-O-benzoyl-4′,6′-O-benzilidene-β-D-maltosyl)-oxy-methyl]-phenyl}-pent-4-enamide], the IC50 came out at 180 nM.
Still for that read-out and setting: the same measure for `CCOCCC1OCC2OC(OC3C(COC(=O)c4ccccc4)OC(OCc4ccc(Cl)c(NC(C)=O)c4)C(O)C3O)C(O)C(O)C2O1` [Example 21, N-{5-{[6-O-Benzoyl-4′,6′-O-((1R)-3-ethoxypropylidene)-β-D-maltosyloxy]-methyl}-2-chloro-phenyl}-acetamide]: 62 nM; for `O=C(Nc1cc(CO[C@@H]2O[C@H](CO)[C@@H](O[C@H]3O[C@@H]4COC(c5ccccc5)O[C@H]4[C@H](O)[C@H]3O)[C@H](O)[C@H]2O)ccc1Cl)c1ccco1` (stereo partly drawn) [Example 63, Furan-2-carboxylic acid {5-[(4′,6′-O-benzylidene-β-D-maltosyl)-oxy-methyl]-2-chloro-phenyl}-amide]: 7730 nM.
